What was measured:
[1] = Solubility of phytosphingosine in solvents; type: physicochemical; details: solvent: mixture of water, lactic acid and a willow bark extract
[2] = cited from earlier work

In the case of `CCCCCCCCCCCCCC[C@@H](O)[C@@H](O)[C@@H](N)CO` [Phytosphingosine, phytosphingosine], the “Amount solubilized to give a completely clear solution” value [1] is given as 5-10 weight %, the “Solubility in isocetyl alcohol” value ([2]; isocetyl alcohol) is given as 1 wt % and the Solubility in water ([2]; water) is given as “not soluble in water at all”.
